These results are taken from article PMC7083565, “In vitro metabolism, reaction phenotyping, enzyme kinetics, CYP inhibition and induction potential of ataluren” (Pharmacology Research & Perspectives, 2020).

Common to all, as to assay type: in vitro ADME
One data set has as its system CYP2A6. The data set is described as follows: CYP induction in primary human hepatocytes: CYP2A6. Conditions: Coumarin 7-hydroxylase, 48 hours, n=3. Here is the method: Human hepatocytes isolated from three Caucasian males were transferred to 48‐well collagen‐coated plates at 0.14 × 10^6 cells/well in planting media for attachment. After attachment, planting media was replaced with sandwich media and the cells were incubated until clusters were established. […] The incubation solutions were aspirated and replaced with freshly prepared incubation solutions containing ataluren for an additional 24 hours. […] The incubation solutions were then aspirated and 150 µL of K‐H buffer containing CYP substrates were added. The hepatocytes were incubated for 30 minutes for CYP2C8 (10 µmol/L amodiaquine), 1 hour for CYP3A4 (125 µmol/L testosterone), and 4 hours for CYPs 1A2 (100 µmol/L phenacetin), 2A6 (100 µmol/L coumarin), 2B6 (150 µmol/L bupropion), 2C9 (50 µmol/L tolbutamide), 2C19 (100 µmol/L S‐mephenytoin), and 2E1 (300 µmol/L chlorzoxazone) activity assays. The reactions were stopped by the addition of 0.15 mL of ice‐cold methanol except that coumarin‐treated cells were incubated with β‐glucuronidase and aryl sulfatase for additional 1 hour to free 7‐hydroxycoumarin before the addition of 0.2 mL of ice‐cold methanol. Metabolite formation in incubations with test compounds and control inhibitors was assessed with validated LC‐MS/MS methods for each of the reaction products as described in Table S2. Enzymatic activity for each CYP was calculated using the absolute amount of metabolite formed (pmol) divided by hepatocytes in the incubation (million cells) and the incubation time (minute). The relative fold induction in enzymatic activity was calculated by comparing the rate of metabolite formation for treatment groups to that of the solvent control group (reported as vehicle control%) or positive control group (reported as positive control%).

Data set [1] is described as follows: Plasma protein binding (ultrafiltration), dog. Conditions: male, beagle, 50 to 50 000 ng/mL, mean ± SD, n = 3, read-out: percentage protein binding (converted). The protocol:
[^14C]‐Ataluren, at 50, 500, 5000, and 50 000 ng/mL or 0.175, 1.75, 17.5, and 175 µM, in male mouse, rat, dog, monkey, and human plasma, was incubated (n = 3) at 37°C for approximately 15 minutes, transferred into Centrifree® Micropartition Units (30 000 Da molecular weight cutoff, 1 mL capacity; Amicon Inc), and centrifuged at 37°C and 2000 g for approximately 10 minutes so that the amount of the sample filtered was approximately ≤ 20% of the total volume. After centrifugation, the entire ultrafiltrate was weighed and analyzed for radioactivity using liquid scintillation counting. The percent bound = (1‐Cu/Cm)×100, where Cu is the concentration of radioactivity in the ultrafiltrate and Cm is the concentration of radioactivity in the plasma before centrifugation.

The target of another data set is T1, CYP2C8 (Homo sapiens, UniProt P10632).
T1 construct: tissue XenoTech LLC, Celsis-In Vitro Technologies, or Tissue Transformation Technologies; host or cells: pooled human liver microsomes
T1 sequence (P10632 1-490): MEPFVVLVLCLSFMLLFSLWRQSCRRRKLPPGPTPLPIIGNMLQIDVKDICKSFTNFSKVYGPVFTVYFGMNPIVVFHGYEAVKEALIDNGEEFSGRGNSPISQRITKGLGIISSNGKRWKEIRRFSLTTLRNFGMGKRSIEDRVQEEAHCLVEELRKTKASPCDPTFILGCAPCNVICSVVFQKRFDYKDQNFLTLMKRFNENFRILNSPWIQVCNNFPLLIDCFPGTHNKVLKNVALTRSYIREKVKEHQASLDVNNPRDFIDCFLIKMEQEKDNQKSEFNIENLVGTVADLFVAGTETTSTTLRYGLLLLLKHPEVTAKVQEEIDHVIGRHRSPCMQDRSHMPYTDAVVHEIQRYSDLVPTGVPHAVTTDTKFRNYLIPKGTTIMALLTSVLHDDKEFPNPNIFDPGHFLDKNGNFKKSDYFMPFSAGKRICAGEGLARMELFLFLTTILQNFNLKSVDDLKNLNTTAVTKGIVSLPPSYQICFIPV
Briefly: CYP inhibition in pooled human liver microsomes: CYP2C8. Here is the method: The final concentration of each probe substrate was near the experimentally determined Km value for the indicated enzyme. Ataluren or prototypical CYP inhibitors (positive controls) was incubated (n = 3) with probe substrates and HLM in 100 mmol/L phosphate buffer (pH 7.4) in a total volume of approximately 0.25 mL, and the reactions were initiated by the addition of 1 mmol/L NADPH at 37°C. The reactions were carried out using previously established conditions to ensure linearity with respect to protein concentration and incubation time (Table S1). Incubations were stopped with the addition of ice‐cold acetonitrile. Metabolite formation in incubations with test compound and control inhibitors was assessed with LC‐MS/MS methods for each of the reaction products as described in Table S2. […] After 7 minutes incubation at 37°C, the reaction was stopped by the addition of ice‐cold acetonitrile, followed by membrane plate filtration. The filtrates were used for LC‐MS/MS analysis. Enzyme activity remaining at each nonzero ataluren concentration after incubation was normalized against control sample (zero ataluren concentration, enzyme activity = 100%), and the % remaining enzyme activity values were used for IC50 calculation. IC50 values were determined by nonlinear regression with GraphPad Prism 5 using the following four‐parameter sigmoidal‐logistic IC50 equation: Fit=background+range-background/[1+I/IC50^slope]
Where, I is the inhibitor concentration, and background was set to 0 and range to 100, as percent of control values are utilized. K i was determined by nonlinear regression with GraphPad Prism 5 using best fit model.

On to `O=C(O)c1cccc(-c2noc(-c3ccccc3F)n2)c1` [ataluren, Ataluren], for which the “Vehicle control %, Mean” value in the data set on CYP2A6 (ataluren 4 µM) is 100%; in the data set with CYP2A6 (ataluren 40 µM), 111%; in the data set on CYP2A6 (ataluren 400 µM), 118%. Moreover, the fraction unbound at 15 min in data set [1] was 0.025. Also, the concentration for half-maximal inhibition (IC50) at CYP2C8 (Amodiaquine N-deethylase, pooled HLM, n=3, (95% confidence interval)) was determined as 163 µM; against CYP2C8 (human, pooled human liver microsomes, pH 7.4, CYP2C8, HLM) it was 165 µM. On CYP2C8 (CYP2C8, amodiaquine N-deethylase), the mechanism of inhibition entry is recorded as “noncompetitive inhibitor”. This molecule registered an inhibitory constant (Ki) on CYP2C8 (CYP2C8, noncompetitive, mean ± SE, n = 3) of 169 ± 6.19 µM.
